Measurements published in US20080292617A1, “ANTIBODY AGAINST A PEPTIDE DERIVED FROM HUMAN MUTANT LAMIN A PROTEIN AND USES THEREOF” (THE TRUSTEES OF COLUMBIA UNIVERSITY IN THE CITY OF NEW YORK, priority 2005, published 2008).

Tests used:
[1] = tested on: HGPS fibroblast cultures; assay: Scoring of abnormally shaped nuclei in fibroblast cultures treated with farnesyltransferase inhibitor; format: cell-based, human; conditions: 20 μM FTI-277 daily, after 48 h treatment, HGPS fibroblasts PPDs 35-38; decreased from 31%
Excerpt: Indirect immunofluorescence and Western blot: Primary cultures of dermal fibroblasts were processed for indirect immunofluorescence as described previously (Paradisi et al, 2005). Rabbit antibodies directed against A-type and B-type lamins were described previously (Chaudhary et al, 1993; Cance et al, 1992). Goat anti-lamin B1 M-20 and anti-prelamin A C-20 (Santa Cruz), monoclonal antibodies anti-emerin 4G5 (Novocastra), anti-nucleoporin Nup153 clone 414 (Covance), anti-lamin A Jo14 (Serotec), and anti-Ki-67 (BD Bioscience) were purchased. Secondary antibodies were affinity purified Alexa Fluor 488 goat or donkey IgG antibodies (Molecular Probes) and Cy3-conjugated IgG antibodies (Jackson ImmunoResearch laboratories). All samples were counterstained with DAPI (Sigma-Aldrich). […]
Quantification: The percentages of ki-67 positive cells, of misshapen or blebbing nuclei, and senescence β-gal positive cells were determined by direct count of 300 cells per coverslip in triplicate, and from three independent experiments. […]
To determine the role of farnesylation in HGPS nuclear abnormalities, control and HGPS fibroblast cultures (PPDs 35-38) were treated daily with 20 μM farnesyltransferase inhibitor FTI-277 (Adjei et al, 2000). […] Progerin was also detected in nuclear foci similarly to wild-type prelamin A (FIG. 6B).

[2] = tested on: progerin (LMNA G608G) in HGPS fibroblasts; assay: Immunofluorescence localization of progerin after FTI-277 treatment; format: cell-based, human
Excerpt: Indirect immunofluorescence and Western blot: Primary cultures of dermal fibroblasts were processed for indirect immunofluorescence as described previously (Paradisi et al, 2005). Rabbit antibodies directed against A-type and B-type lamins were described previously (Chaudhary et al, 1993; Cance et al, 1992). Goat anti-lamin B1 M-20 and anti-prelamin A C-20 (Santa Cruz), monoclonal antibodies anti-emerin 4G5 (Novocastra), anti-nucleoporin Nup153 clone 414 (Covance), anti-lamin A Jo14 (Serotec), and anti-Ki-67 (BD Bioscience) were purchased. Secondary antibodies were affinity purified Alexa Fluor 488 goat or donkey IgG antibodies (Molecular Probes) and Cy3-conjugated IgG antibodies (Jackson ImmunoResearch laboratories). All samples were counterstained with DAPI (Sigma-Aldrich). When cells were treated daily for 3 days with farnesyltransferase inhibitor FTI-277 (Calbiochem), the culture medium was supplemented with 20 μM FTI-277 or DMSO prior to immunofluorescence analysis as described previously (Adjei et al, 2000). Images were processed using Adobe Photoshop. For Western blot analysis, total cellular protein extracts were isolated from dermal fibroblast cultures at different population doublings (25 to 55) and processed as described previously (Paradisi et al, 2005).
To determine the role of farnesylation in HGPS nuclear abnormalities, control and HGPS fibroblast cultures (PPDs 35-38) were treated daily with 20 μM farnesyltransferase inhibitor FTI-277 (Adjei et al, 2000). After 48 h treatment, the percentage of HGPS nuclei with abnormal shapes decreased from 31% to 8% (FIG. 6A). The intranuclear repartition of prelamin A and the localization of LMNA G608G differed greatly between treated and un-treated cells; prelamin A was not detectable in control or HGPS cells (FIG. 6B). […] Progerin was also detected in nuclear foci similarly to wild-type prelamin A (FIG. 6B).

COC(=O)[C@H](CCSC)NC(=O)c1ccc(NC[C@@H](N)CS)cc1-c1ccccc1 [FTI-277]
percentage of HGPS nuclei with abnormal shapes [1]: 8% | progerin localization (anti-LMNA G608G staining) ([2]; 20 μM FTI-277, 76 h after treatment): progerin was totally depleted from the NE in most nuclei | progerin localization (anti-LMNA G608G staining) ([2]; 20 μM FTI-277, after 24 h treatment): progerin was still incorporated into the nuclear lamina | progerin localization (anti-LMNA G608G staining) ([2]; 20 μM FTI-277, after 48 h treatment): progerin was progressively depleted from the NE and lamina
